Where two headings read alike, the source gives them in different places.
Legend:
5-lipoxygenase = target: T1, 5-lipoxygenase (Rattus norvegicus, UniProt P12527); test: Inhibition of 5-lipoxygenase (production of 5-HETE in RBL-1 cells); format: cell-based, rat (RBL-1, rat basophilic leukemia cells); settings: for inhibition at 1 µM: 10^-6 M; for inhibition at 0.1 µM: 10^-7 M
T1 construct: endogenous in cells; host or cells: RBL-1 cells (rat basophilic leukemia)
T1 sequence (P12527 1-673): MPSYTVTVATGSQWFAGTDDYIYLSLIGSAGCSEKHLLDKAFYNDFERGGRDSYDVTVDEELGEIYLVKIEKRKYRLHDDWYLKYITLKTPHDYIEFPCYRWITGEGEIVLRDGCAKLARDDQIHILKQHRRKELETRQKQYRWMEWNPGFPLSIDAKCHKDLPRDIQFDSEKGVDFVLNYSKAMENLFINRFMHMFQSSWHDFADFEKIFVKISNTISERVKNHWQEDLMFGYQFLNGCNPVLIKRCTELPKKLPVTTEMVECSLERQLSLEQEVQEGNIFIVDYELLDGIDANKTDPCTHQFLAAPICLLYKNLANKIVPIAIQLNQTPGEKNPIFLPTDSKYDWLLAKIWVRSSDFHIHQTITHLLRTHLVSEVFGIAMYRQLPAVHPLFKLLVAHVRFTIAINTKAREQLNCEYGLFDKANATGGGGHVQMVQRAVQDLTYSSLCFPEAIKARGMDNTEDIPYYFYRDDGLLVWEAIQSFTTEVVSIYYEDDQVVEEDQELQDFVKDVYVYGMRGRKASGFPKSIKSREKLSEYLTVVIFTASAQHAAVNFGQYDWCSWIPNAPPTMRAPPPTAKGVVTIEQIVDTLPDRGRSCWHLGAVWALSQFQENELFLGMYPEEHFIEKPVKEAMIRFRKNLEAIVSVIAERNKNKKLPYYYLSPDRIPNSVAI
Method: Inhibition of 5-lipoxygenase
10^7 RBL-1 cells (rat basophilic leukemia cells) were suspended in 0.5 ml of MCM (mast cell medium ). To the suspension was subsequently added a solution consisting of 0.5 ml of MCM, 50 μg of arachidonic acid, 10 μg of A-23187 (calcium ionophore, Eli Lilly), and a solution of a quinone compound in ethanol at the final concentration of 1 μM, 0.1 μM, 0.01 μM or 0.001 μM of the test compound was added and allowed to react at 37° C. for 20 minutes. After the reaction, 4 ml of ethanol containing 1,4-dimethoxy-2-methyl-3-(3-methoxypropyl)naphthalene as an internal standard were added, mixed well by shaking, and kept at room temperature for 10 minutes. Then the mixture was centrifuged for 10 minutes (2000 rpm), and the supernatant was separated. The supernatant was concentrated to dryness under reduced pressure. To the concentrate, 0.5 ml of 60% aqueous methanol was added. One hundred μl of this solution was subjected to high performance liquid chromatography for quantitative analysis of 5-HETE (5-hydroxyeicosatetraenoic acid). The amount of 5-HETE was analyzed by measurement of the absorbance at […] with a UV absorption monitor.
Inhibitory effect (IE) of production of 5-HETE is expressed by (1-b/a)×100, wherein a is the peak height or the area corrected with the peak due to the internal standard in the absence of the quinone compound, and b is the peak hight or peak area corrected with the peak due to the internal standard in the presence of the quinone compound.

[1] = target: T2, Thromboxane A2 (TXA2) synthetase (Equus caballus, UniProt A0A9L0T8T9); test: Inhibition of Thromboxane A2 (TXA2) synthetase (horse platelet microsome); format: biochemical; settings: read-out: Inhibition of Thromboxane A2 (TXA2) synthetase
T2 sequence (A0A9L0T8T9 2-534): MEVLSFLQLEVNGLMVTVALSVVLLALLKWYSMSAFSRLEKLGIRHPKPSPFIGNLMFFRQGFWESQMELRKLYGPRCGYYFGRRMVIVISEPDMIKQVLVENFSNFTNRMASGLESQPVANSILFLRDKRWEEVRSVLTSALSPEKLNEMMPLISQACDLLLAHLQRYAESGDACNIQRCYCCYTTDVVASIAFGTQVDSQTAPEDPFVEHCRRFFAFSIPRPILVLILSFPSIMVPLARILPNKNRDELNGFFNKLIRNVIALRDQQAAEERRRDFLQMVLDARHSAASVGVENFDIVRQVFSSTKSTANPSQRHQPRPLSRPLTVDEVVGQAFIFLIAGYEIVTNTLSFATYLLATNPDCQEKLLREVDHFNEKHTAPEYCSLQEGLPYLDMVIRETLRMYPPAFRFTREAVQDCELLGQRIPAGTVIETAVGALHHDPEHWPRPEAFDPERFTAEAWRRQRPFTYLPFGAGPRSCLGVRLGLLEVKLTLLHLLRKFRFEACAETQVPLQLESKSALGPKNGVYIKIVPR
Method: Inhibition of Thromboxane A2 (TXA2) synthetase
(§1) As a preparation of TXA2 synthetase, horse platelet microsome treated with indomethacin (indomethacin-treated horse platelet microsome: IPM) according to the method of Needleman et al. (Science 193 163, 1979) was used. To 60 μl of the solution of IPM in 50 mM Tris buffer(pH 7.5) (containing 140 μg on the protein basis), 60μof a solution containing a drug at a variable concentration was added and kept still at room temperature for 5 minutes. One hundred μl of this mixture was taken, to which 20 μl of a buffer containing 30 ng cf prostaglandin H2 (PGH2) with ice-cooling and kept still at 0° C. for 5 minutes to produce thromboxane A2 (TXA2). The reaction was stopped by addition of 500 μl of Tris buffer, and 50 μl of the resultant solution was subjected to radioimmunoassay of thromboxane B2 (TXB2), a stable metabolite of TXA2 [Shibouta et al. Biochem. Pharmacol. 28 3601, 1979]. The rate of inhibition (%) of TXA2 synthetase was determined from the difference in TXB2 productivity between the untreated group and the treated group.
as §1, with “60 μl of” for “60μof”, “of” for “cf”

[2] = test system: lipid peroxide in rat brain homogenate; test: Inhibition of production of lipid peroxide in rat brain homogenate; format: biochemical, rat (Sprague-Dawley)
Method: Procedure: Sprague-Dawley rats (male, 9-15 weeks old) anesthetized with pentobarbital (50 mg/kg, intraperitoneal administration) were venesected and the brain tissue was resected. The tissue was homogenized in phosphate buffer (pH 7.4), and used as a 5% homogenate (on weight basis). The brain homogenate was allowed to react at 37° C. for 1 hour, and the amount of lipid peroxide produced was determined with the thiobarbituric acid method according to the method of Okawa et al. (Analytical Biochem 95 551, 1979). The drug was added to the 5% homogenate before the reaction at 37° C. for 1 hour so that the final concentration might be 5×10^-7 or 10^-6 M. Inhibition of production of lipid peroxide was expressed as the rate of inhibition in % of the amount produced in the solvent(DMSO)-treated group.

Row | Structure (SMILES) | inhibition at 1 µM (5-lipoxygenase) | inhibition at 0.1 µM (5-lipoxygenase) | inhibition at 1 µM ([1]; 10^-6 M) | inhibition at 0.1 µM ([1]; 10^-7 M) | Inhibition of production of lipid peroxide in rat brain homogenate ([2]; 5 × 10^-7 M) | Inhibition of production of lipid peroxide in rat brain homogenate ([2]; 10^-6 M) | inhibition at 0.1 µM [1] | inhibition at 1 µM [1]
1 | CC(=Cc1ccc(C(C2=C(C)C(=O)C(C)=C(C)C2=O)c2cccnc2)cc1)C(=O)O (stereo not drawn) [Compound No. 5, 4-[3,5,6-trimethyl-1,4-benzoquinon-2-yl(3-pyridyl)methyl]-α-methylcinnamic acid] | 73% | 28% | 65% | 7% | 29% | 100% |  | 
2 | CC1=C(C)C(=O)C(Cc2cccnc2)=C(C)C1=O [Compound No. 14] | 92% | 80% | 61% | 35% | 46% | 100% |  | 
3 | CC(=O)OCCCCCC(C1=C(C)C(=O)C(C)=C(C)C1=O)c1cccnc1 (centres unmarked) [compound 12] | 91% | 67% | 56% | 22% | 15% | 100% |  | 
4 | CC1=C(C)C(=O)C(C(c2ccccc2)c2cccnc2)=C(C)C1=O (centres unmarked) [Compound No. 2, 3,5,6-trimethyl-2-[phenyl-(3-pyridyl)methyl]-1,4-benzoquinone] | 85% | 60% |  |  | 32% | 100% | 45% | 89%
5 | CCC(C1=C(C)C(=O)C(C)=C(C)C1=O)c1cccnc1 (centres unmarked) [compound 15] | 91% | 57% | 76% | 15% | 52% | 100% |  | 

More lines, main results first:

Row | inhibition at 1 µM (5-lipoxygenase) | inhibition at 0.1 µM (5-lipoxygenase) | inhibition at 1 µM ([1]; 10^-6 M) | inhibition at 0.1 µM ([1]; 10^-7 M) | Structure (SMILES) | Inhibition of production of lipid peroxide in rat brain homogenate ([2]; 5 × 10^-7 M) | Inhibition of production of lipid peroxide in rat brain homogenate ([2]; 10^-6 M) | inhibition at 0.1 µM [1] | inhibition at 1 µM [1]
6 | 90% | 62% | 54% | 18% | CC(=O)OCCCCC(C1=C(C)C(=O)C(C)=C(C)C1=O)c1cccnc1 (centres unmarked) [compound 9] | 17% | 100% |  | 
7 | 86% | 35% | 32% |  | CCCCC(C1=C(C)C(=O)C(C)=C(C)C1=O)c1cccnc1 (centres unmarked) [Compound No. 7, 2-[1-(3-pyridyl)pentyl]-3,5,6-trimethyl-1,4-benzoquinone] | 26% | 100% |  | 
8 | 90% | 52% | 67% | 24% | CC1=C(C)C(=O)C(C(CCCCC(=O)O)c2cccnc2)=C(C)C1=O (centres unmarked) [compound 10] | 13% | 100% |  | 
9 | 96% | 77% | 49% | 6% | CCCCCCC(C1=C(C)C(=O)C(C)=C(C)C1=O)c1cccnc1 (centres unmarked) [Compound No. 16, 1-(3,5,6-trimethyl-1,4-benzoquinon-2-yl)-1-(3-pyridyl)heptane] | 44% | 100% |  | 
10 | 88% | 61% | 67% | 13% | CC1=C(C)C(=O)C(C(CCCCCO)c2cccnc2)=C(C)C1=O (centres unmarked) [compound 11] | 15% | 100% |  | 
11 | 88% | 63% | 37% | 6% | CC1=C(C)C(=O)C(C(CCCCO)c2cccnc2)=C(C)C1=O (centres unmarked) [compound 8] | 20% | 100% |  | 

Source: patent US4985447A, “Certain benzoquinones, naphthoquinones and derivatives thereof which exhibit thromboxane A2 synthetase inhibition or receptor antagonism and the like” (Takeda Chemical Industries, Ltd., priority 1986, dated 1991)
